# Assays:
# GPR164 (Or51e1, Olfr558) [1] = target: T1, GPR164 (Or51e1, Olfr558) (Mus musculus, UniProt Q8VGZ7); test: cAMP EIA in Or51e1-overexpressing HEK293 cells, single concentration […]; format: cell-based; parameters: HA-tagged Or51e1 in HEK293 cells, co-transfected with RTP1S or RTP4
# T1 sequence (Q8VGZ7 1-317): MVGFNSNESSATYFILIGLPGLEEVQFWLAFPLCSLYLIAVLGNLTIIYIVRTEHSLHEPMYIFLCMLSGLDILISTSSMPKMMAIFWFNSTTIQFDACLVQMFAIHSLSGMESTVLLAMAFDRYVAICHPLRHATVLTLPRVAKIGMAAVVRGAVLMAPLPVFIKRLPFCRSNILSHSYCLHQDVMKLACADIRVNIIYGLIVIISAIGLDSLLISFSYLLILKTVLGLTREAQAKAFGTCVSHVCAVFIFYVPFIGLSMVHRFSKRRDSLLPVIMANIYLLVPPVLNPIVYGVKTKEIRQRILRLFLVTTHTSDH
# GPR164 (Or51e1, Olfr558) [2] = target: T1, GPR164 (Or51e1, Olfr558); test: as above; format: cell-based; parameters: HA-tagged Or51e1 in HEK293 cells, active only when co-transfected with RTP1S
Structure (SMILES),"intracellular cAMP response (GPR164 (Or51e1, Olfr558) [1])","cAMP EIA in Or51e1-overexpressing HEK293 cells, single concentration 1 mM (GPR164 (Or51e1, Olfr558) [2])"
"CCCC(=O)O [C4, butyrate]",intracellular cAMP levels were upregulated by the treatment with butyrate or valerate (Fig. 1B),–
"CCCCC(=O)O [C5, valerate]",only SCFAs (butyrate and valerate) activated GPR164 in cells expressing RTP4 (Fig. 1B),–
"CCCCCCCCCC(=O)O [C10, decanoate]",–,GPR164 was activated by the stimulation with butyrate or decanoate when cells were co-transfected with both Or51e1 and RTP1S

# — paper PMC12678807, “The free fatty acid receptor GPR164 maintains intestinal homeostasis and barrier function” (EMBO Reports, 2025)
